The structures appear in SMILES notation.

This passage reports IC50 results from patent US20160244436A1, “NOVEL FUNCTIONALIZED 5-(PHENOXYMETHYL)-1,3-DIOXANE ANALOGS EXHIBITING CYTOCHROME P450 INHIBITION AND THEIR METHOD OF USE” (CORTENDO AB (PUBL), priority 2013, published 2016).

One data set deals with Cyp3A4 (Homo sapiens, UniProt P08684). Put plainly: Cyp3A4 off-target counter screen. It is filed as in vitro ADME. As to conditions: off-target enzyme.
The target of another data set is T1, recombinant CYP-17 (Homo sapiens, UniProt P05093).
T1 construct: expressed in transfected cells; host or cells: AD293
T1 sequence (P05093 1-508): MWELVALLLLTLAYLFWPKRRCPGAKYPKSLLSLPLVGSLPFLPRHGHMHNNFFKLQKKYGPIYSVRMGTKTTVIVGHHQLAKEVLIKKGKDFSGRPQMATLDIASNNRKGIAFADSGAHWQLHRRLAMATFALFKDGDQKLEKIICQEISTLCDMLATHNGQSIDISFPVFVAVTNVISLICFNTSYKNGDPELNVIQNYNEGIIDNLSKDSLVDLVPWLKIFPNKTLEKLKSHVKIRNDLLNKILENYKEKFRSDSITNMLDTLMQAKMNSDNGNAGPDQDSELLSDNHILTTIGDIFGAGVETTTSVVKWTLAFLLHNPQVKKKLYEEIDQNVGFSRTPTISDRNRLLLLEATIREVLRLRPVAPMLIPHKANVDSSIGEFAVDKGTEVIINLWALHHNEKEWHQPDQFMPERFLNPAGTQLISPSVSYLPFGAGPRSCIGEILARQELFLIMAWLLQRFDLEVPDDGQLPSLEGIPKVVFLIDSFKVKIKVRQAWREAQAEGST
Put plainly: Cyp17 assay: AD293 cells over-expressing recombinant CYP-17, 3H-acetic acid release from [21-3H] 17α-hydroxyl-Pregnenolone. It is filed as cell-based. How it is done:
Cyp17 assay protocol: AD293 cells that stably over-express recombinant CYP-17 were seeded in 96 well plates coated with poly D-lysine (15,000 cell per well) and incubated at 37° C. for 24 hours in Dulbecco's Modified Eagle Medium (DMEM) with Fetal Bovine Serum (FBS) that is stripped of hormones by charcoal treatment. The media is then removed, the cells are washed once with Phosphate buffer saline solution, and 50 μL Dulbecco's Modified Eagle Medium (DMEM) with Fetal Bovine Serum (FBS) that is stripped of hormones by charcoal treatment is added. Compounds of the disclosure are then added to the wells in eight concentration spanning 10 μM to 4.5 nM, and the plates are incubated for an additional 60 minutes at 37° C. [21-^3H] 17α-hydroxyl-Pregnenolone is then added (50 nCi per well, 31.25 nM) and the plates are incubated for an additional 4 hours at 37° C. The media is then collected, 200 μL, of chloroform is added, and the mixture is shaken for 1 hour. The aqueous layer is then separated and analyzed for the presence of ^3H-acetic acid using a Perkin Elmer Topcount NXT to determine IC50s of the compounds of the disclosure.

For another data set, the target named is T2, Cyp19 (Homo sapiens, UniProt P11511).
T2 sequence (P11511 1-503): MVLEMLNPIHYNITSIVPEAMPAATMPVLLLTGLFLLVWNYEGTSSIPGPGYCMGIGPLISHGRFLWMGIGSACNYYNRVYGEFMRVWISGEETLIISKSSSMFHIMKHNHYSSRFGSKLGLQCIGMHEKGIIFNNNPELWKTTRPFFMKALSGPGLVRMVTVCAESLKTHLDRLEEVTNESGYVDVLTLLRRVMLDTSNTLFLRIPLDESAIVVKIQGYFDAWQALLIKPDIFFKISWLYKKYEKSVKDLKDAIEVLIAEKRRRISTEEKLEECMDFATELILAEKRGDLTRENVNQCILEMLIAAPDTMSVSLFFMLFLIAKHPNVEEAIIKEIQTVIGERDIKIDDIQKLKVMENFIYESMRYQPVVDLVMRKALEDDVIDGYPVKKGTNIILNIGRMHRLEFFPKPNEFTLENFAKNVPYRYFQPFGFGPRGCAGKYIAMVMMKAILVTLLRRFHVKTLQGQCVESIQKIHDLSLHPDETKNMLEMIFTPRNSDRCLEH
Put plainly: Cyp19 off-target counter screen. Format: biochemical. As to conditions: off-target enzyme. On the technique in general: A counterscreen serves to expose hits that act by an unwanted route or on another target.

Another data set deals with T3, recombinant CYP-21 (Homo sapiens, UniProt P08686).
T3 construct: expressed in transfected cells; host or cells: AD293
T3 sequence (P08686 1-495): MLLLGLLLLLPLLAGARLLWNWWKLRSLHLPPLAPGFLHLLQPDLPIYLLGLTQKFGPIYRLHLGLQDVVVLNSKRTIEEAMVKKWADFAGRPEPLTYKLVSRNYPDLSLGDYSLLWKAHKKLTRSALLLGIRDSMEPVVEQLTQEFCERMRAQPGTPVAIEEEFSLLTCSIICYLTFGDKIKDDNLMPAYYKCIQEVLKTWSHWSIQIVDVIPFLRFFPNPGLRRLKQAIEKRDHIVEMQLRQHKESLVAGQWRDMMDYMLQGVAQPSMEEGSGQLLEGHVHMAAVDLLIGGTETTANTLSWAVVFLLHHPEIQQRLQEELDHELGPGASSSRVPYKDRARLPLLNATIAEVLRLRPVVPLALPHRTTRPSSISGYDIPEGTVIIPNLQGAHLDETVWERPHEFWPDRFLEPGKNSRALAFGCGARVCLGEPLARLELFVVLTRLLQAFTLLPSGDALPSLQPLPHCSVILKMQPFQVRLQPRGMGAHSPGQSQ
Put plainly: Cyp21 assay: AD293 cells over-expressing recombinant CYP-21, 11-deoxycortisol formation from 17α-OH Progesterone by LC/MS. It is filed as cell-based. How it is done: Cyp21 assay protocol: AD293 cells that stably over-express recombinant CYP-21 were seeded in 96 well plates coated with poly D-lysine (10,000 cell per well) and incubated at 37° C. for 24 hours in Dulbecco's Modified Eagle Medium (DMEM) with Fetal Bovine Serum (FBS) that is stripped of hormones by charcoal treatment. The media is then removed, the cells are washed once with Phosphate buffer saline solution, and 50 μL Dulbecco's Modified Eagle Medium (DMEM) with Fetal Bovine Serum (FBS) that is stripped of hormones by charcoal treatment is added. Compounds of the disclosure are then added to the wells in eight concentration spanning 10 μM to 4.5 nM, and the plates are incubated for an additional 60 minutes at 37° C. 17α-OH Progesterone is then added (1.0 μM) and the plates are incubated for an additional 45 minutes at 37° C. After incubation, 50 uL of the supernatant (medium) is transferred into a fresh plate and 150 uL of an acetonitrile solution containing 200 ng/ml of Telmisartan is added. The sample is mixed and then placed in a centrifuge at 2000 rpm for 5 minutes. 100 uL of the supernatant is transferred into a fresh 96 well deep well plate, 100 uL of 1:1 methanol:water was added, the solution was mixed and then analyzed by LC/MS for the presence of 11-deoxycortisol using an Agilent 1200 RRLC/ABSCIEX API4000 LC-MS or Shimadzu Prominance/ABSCIEX API4000 LC-MS to determine IC5os of the compounds of the disclosure.

Data set [1] concerns Bile Acid (Cyp7A surrogate). Put plainly: Bile acid secretion / synthesis inhibition (Cyp7A surrogate). It is filed as cell-based.

Sequence of Cyp3A4 (P08684 whole entry): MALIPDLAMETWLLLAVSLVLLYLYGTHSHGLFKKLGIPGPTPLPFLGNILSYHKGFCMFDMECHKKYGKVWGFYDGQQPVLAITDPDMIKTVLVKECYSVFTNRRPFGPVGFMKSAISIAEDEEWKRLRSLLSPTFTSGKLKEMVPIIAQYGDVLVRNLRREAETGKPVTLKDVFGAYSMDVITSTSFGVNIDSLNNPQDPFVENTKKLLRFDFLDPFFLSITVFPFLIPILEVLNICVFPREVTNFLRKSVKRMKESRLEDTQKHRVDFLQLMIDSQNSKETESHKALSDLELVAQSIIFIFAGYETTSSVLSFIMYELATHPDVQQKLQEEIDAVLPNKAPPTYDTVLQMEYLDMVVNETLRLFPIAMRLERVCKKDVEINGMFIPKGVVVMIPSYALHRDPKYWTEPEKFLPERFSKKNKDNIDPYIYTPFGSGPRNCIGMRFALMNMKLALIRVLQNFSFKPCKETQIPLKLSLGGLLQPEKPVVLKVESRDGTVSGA

Usually IC50 stands for the concentration that inhibits the measured activity by half. `CC(=O)N1CCN(c2ccc(CO[C@H]3CO[C@](Cn4ccnc4)(c4ccc(Cl)cc4Cl)OC3)cc2)CC1` [drawing 112]: the concentration for half-maximal inhibition (IC50) against Cyp3A4 worked out at 109 nM; at recombinant CYP-17 it was 8 nM; on Cyp19, 350 nM; on recombinant CYP-21 it was 208 nM; in data set [1], 880 nM.
